“Also recorded” adds a separate entry of the source. Like-named read-outs stand apart in the source and are kept apart here.
Assays:
GiPCR signaling [1] = test: CDS (CellKey) functional evaluation of Gi protein-mediated receptor signaling in primary mouse osteoblasts; assay type: cell-based, mice
Gi1, Gi2, Gi3 proteins = test: Immunoprecipitation/Western blot: phosphorylation of Gi proteins in MC3T3-E1 cells; assay type: cell-based; details: MC3T3-E1 treated with rOPN in presence of kinase inhibitor
Procedure: Given that the defective GiPCR signaling associated with idiopathic scoliosis has causatively been related to increased phosphorylation of Gi proteins (Moreau et al., 2004), it was of interest to examined whether OPN influences the phosphorylation status of Gi proteins. Accordingly, MC3T3-E1 cells were treated with rOPN, then cell lysates were immunoprecipitated with antibodies against Gi1, Gi2 or Gi3 protein isoforms, and the phosphorylation level was examined by Western blot using anti-phospho serine/threonine or anti-tyrosine antibodies. […] However, band density was higher in OPN-treated cells.
To support the involvement of α5β1 integrin in this process, cells were pre-treated with antibody against α5β1 integrin prior to rOPN treatment.
Cell extracts prepared from MC3T3-E1 that had been treated with rOPN in the presence or absence of an inhibitor specific for each kinase were subjected to immunoprecipitation and Western blot analysis. […] However, both serine and tyrosine phosphorylation were attenuated by inhibitors of FAK (FAK inhibitor-14), Scr (PP2), CaMKII (KN93), PI3K (wortmannin-data not shown), MEK (PD98059), ERK1/2 (FR180204), JNK (SP60125) and P38 (SB203580).

GsPCR signaling = test: CDS response to GsPCR stimulation (isoproterenol, desmopressin) in MC3T3-E1 cells; assay type: cell-based; details: rOPN in combination with Src inhibitor; isoproterenol, similar with desmopressin
Source text: Taken into account these considerations and having observed that genetic deletion of OPN inversely influenced response to Gi and Gs stimulation (FIG. 1), it was of interest to examine the effect of OPN on the functional and phosphorylation status of Gs protein and on its interaction with receptors. For this purpose, cells were subjected to isoproterenol and desmopressin in the presence of rOPN or PBS. As expected, response to isoproterenol was higher in rOPN than in PBS-treated cells.
Assuming that inhibition of Gi protein and phosphorylation of Gs protein are responsible for the increased GsPCR signaling associated with rOPN, the next experiments aimed to determine the contribution of each parameter. For this purpose, cells were treated with PTX to mimic disruption action of rOPN and compared to cells treated with rOPN alone or in combination with Src inhibitor (PP2) to prevent tyrosine phosphorylation. […] This modest difference was abolished by Src inhibitor (PP2). Similar observations were noted when cells were stimulated with desmopressin.

GiPCR signaling [2] = test: CDS integrated response to GiPCR ligands in MC3T3-E1 osteoblastic cell line; assay type: cell-based; details: for response in the presence of rOPN after siRNA transfection: MC3T3-E1, compared with untreated cells
Procedure: The functional evaluation of Gi, Gs and Gq proteins was assessed by CDS assays using osteoblasts cells derived from C57Bl/6j WT and C57Bl/6j OPN^−/− mice (bipedal and quadrupedal) using CellKey™ apparatus, as previously described (Akoume et al., 2010, and WO 2010/040234 to Moreau et al.).
MC3T3-E1 cells were used to check the effect of the knockdown of OPN and its receptors. MC3T3-E1 osteoblasts cells were transiently transfected in serum-free medium, using Lipofectamine™ RNAiMAX reagent (Invitrogen) according to the manufacturer's instructions and functional experiments were performed 48 h post transfection. The sequence of RNA oligonucleotides used for the knockdown of different genes are, ssp1 (encodes OPN) (CCACAGCCACAAGCAGUCCAGAUUA (SEQ ID NO: 9)), integrin β1 (CCUAAGUCAGCAGUAGGAACAUUAU (SEQ ID NO: 10)), integrin β3 (CCUCCAGCUCAUUGUUGAUGCUUAU (SEQ ID NO: 11)), integrin α5 (CCGAGUACCUGAUCAACCUGGUUCA (SEQ ID NO: 12)), integrin α8 (GAGAUGAAACUGAAUUCCGAGAUAA (SEQ ID NO: 13)), integrin αv (GACUGUUGAGUAUGCUCCAUGUAGA (SEQ ID NO: 14 and CD44 (GAACAAGGAGUCGUCAGAAACUCCA (SEQ ID NO: 15)). Two other siRNAs against integrin α5 were tested (UCCACCAUGUCUAUGAGCUCAUCAA (SEQ ID NO:16) and UCAGGAGCAGAUUGCAGAAUCUUAU (SEQ ID NO:17)).
To further investigate the role of OPN in Gi protein-mediated receptor signaling, several lines of experiments were performed using MC3T3-E1 osteoblastic cell line. Since these cells express OPN, was first examined whether depletion of OPN by siRNA influences the capacity of GiPCR ligands to induce cell signaling as measured by CDS in MC3T3-E1 cells. […] Similar results were obtained when cells were stimulated with oxymethazolin. […] To confirm this hypothesis, cells were treated with exogenous recombinant OPN (rOPN) prior to DAMGO and oxymethazolin stimulation.

[3] = molecular target: RGD-dependent integrins expressed in osteoblasts; test: cell-based or functional assay
[4] = osteoblasts from WT and OPN-/- mice, increasing agonist concentration

## C[C@@H](NC(=O)[C@@H](N)Cc1ccc(O)cc1)C(=O)NCC(=O)N(C)[C@@H](Cc1ccccc1)C(=O)NCCO [DAMGO]
GiPCR signaling [1]; [4]
  response to GiPCR agonist: concentration-dependent increase of response

## Nc1cc(N)c(N)cc1N [FAK inhibitor-14]
Gi1, Gi2, Gi3 proteins
  level of serine phosphorylation in the Gi protein precipitates: attenuated
  tyrosine phosphorylation levels in the Gi protein precipitates: attenuated

## Nc1[nH]nc2nnc(-c3c(-c4ccccc4)nn4ccccc34)cc12 [FR180204]
Gi1, Gi2, Gi3 proteins
  level of serine phosphorylation in the Gi protein precipitates: attenuated
  tyrosine phosphorylation levels in the Gi protein precipitates: attenuated

## COc1ccc2c(c1)c(C1=C(c3c[nH]c4ccccc34)C(=O)NC1=O)cn2CCCN(C)C [Gö6983]
Gi1, Gi2, Gi3 proteins
  level of serine phosphorylation in the Gi protein precipitates: attenuated
  tyrosine phosphorylation levels in the Gi protein precipitates: without effect

## COc1ccc(S(=O)(=O)N(CCO)c2ccccc2CN(C)C/C=C/c2ccc(Cl)cc2)cc1 [KN93]
Gi1, Gi2, Gi3 proteins
  level of serine phosphorylation in the Gi protein precipitates: attenuated
  tyrosine phosphorylation levels in the Gi protein precipitates: attenuated

## COc1cccc(-c2cc(=O)c3ccccc3o2)c1N [PD98059]
Gi1, Gi2, Gi3 proteins
  level of serine phosphorylation in the Gi protein precipitates: attenuated
  tyrosine phosphorylation levels in the Gi protein precipitates: attenuated

## CC(C)(C)n1nc(-c2ccc(Cl)cc2)c2c(N)ncnc21 [PP2]
Gi1, Gi2, Gi3 proteins
  level of serine phosphorylation in the Gi protein precipitates: attenuated
  tyrosine phosphorylation levels in the Gi protein precipitates: attenuated
GsPCR signaling
  difference in response between rOPN-treated and PTX-treated cells: abolished

## C[S+]([O-])c1ccc(-c2nc(-c3ccncc3)c(-c3ccc(F)cc3)[nH]2)cc1 (centres unmarked) [SB203580]
Gi1, Gi2, Gi3 proteins
  level of serine phosphorylation in the Gi protein precipitates: attenuated
  tyrosine phosphorylation levels in the Gi protein precipitates: attenuated

## O=C1c2ccccc2-c2n[nH]c3cccc1c23 [SP60125]
Gi1, Gi2, Gi3 proteins
  level of serine phosphorylation in the Gi protein precipitates: attenuated
  tyrosine phosphorylation levels in the Gi protein precipitates: attenuated

## Cc1cc(C(C)(C)C)c(O)c(C)c1CC1=NCCN1 [oxymethazolin]
GiPCR signaling [1]; [4]
  response to GiPCR agonist: concentration-dependent increase of response

## CD44 siRNA: siRNA for knockdown of CD44: GAACAAGGAGUCGUCAGAAACUCCA (guide GAACAAGGAGUCGUCAGAAACUCCA; listed as RNA, chemistry not given here)
GiPCR signaling [2]; MC3T3-E1 cells, rOPN present
  effect on the inhibitory effect of rOPN on response to DAMGO and oxymethazolin: did not prevent; also recorded: further aggravated the defect

## OPN siRNA: siRNA for knockdown of ssp1 (encodes OPN): CCACAGCCACAAGCAGUCCAGAUUA
GiPCR signaling [2]; MC3T3-E1 cells, endogenous OPN depleted or blocked, no exogenous rOPN
  integrated response to DAMGO and oxymethazolin: significantly greater

## RGD peptide
[3]
  RGD concentration reversing the inhibitory effect of OPN on response to DAMGO and oxymethazolin (CDS): > 10 µg/mL

## apelin
GiPCR signaling [1]
  response to GiPCR agonist: concentration-dependent increase of response

## hyaluronic acid [HA]
GiPCR signaling [1]; CD44-/- osteoblasts
  sensitivity of GiPCR signaling to CD44 inhibition: does not show any sensitivity
GiPCR signaling [1]; wild type osteoblasts, compared to the control
  GiPCR signaling defects: exacerbated
GiPCR signaling [1]; wild type osteoblasts, in presence of rOPN
  GiPCR signaling defect / inhibitory effect of OPN when CD44 is inhibited: intensified; also recorded: exacerbate the signaling defect

## pertussis toxin [PTX]
GiPCR signaling [1]; osteoblasts from WT and OPN-/- mice, DAMGO, somatostatin, oxymethazolin, apelin
  cellular responses to each of the four tested agonists after PTX pre-treatment: largely reduced

## α5 siRNA: siRNA against integrin α5: CCGAGUACCUGAUCAACCUGGUUCA; two others (SEQ ID NO:16, 17) also tested (guide CCGAGUACCUGAUCAACCUGGUUCA; listed as RNA, chemistry not given here)
GiPCR signaling [2]
  response in the presence of rOPN after siRNA transfection: high response

## β1 siRNA: siRNA against integrin β1: CCUAAGUCAGCAGUAGGAACAUUAU (guide CCUAAGUCAGCAGUAGGAACAUUAU; listed as RNA, chemistry not given here)
GiPCR signaling [2]
  response in the presence of rOPN after siRNA transfection: high response
